Consider five molecules from paper PMC6009935 (Journal of Enzyme Inhibition and Medicinal Chemistry, 2017).

Read-outs that look alike come from different tables or passages of the source.

The Ki is the equilibrium dissociation constant of an inhibitor or competing ligand from its target. The EC50 is the concentration at which the effect is half-maximal. A higher EC50 goes with lower potency in that assay.

For experiment [1], the target named is T1, cannabinoid receptors (CBR) (Rattus norvegicus, UniProt P20272).
T1 construct: a: performed in rat whole brain membrane homogenates; from tissue; host or cells: Wistar rat whole brain membrane homogenate
T1 sequence (P20272 whole entry): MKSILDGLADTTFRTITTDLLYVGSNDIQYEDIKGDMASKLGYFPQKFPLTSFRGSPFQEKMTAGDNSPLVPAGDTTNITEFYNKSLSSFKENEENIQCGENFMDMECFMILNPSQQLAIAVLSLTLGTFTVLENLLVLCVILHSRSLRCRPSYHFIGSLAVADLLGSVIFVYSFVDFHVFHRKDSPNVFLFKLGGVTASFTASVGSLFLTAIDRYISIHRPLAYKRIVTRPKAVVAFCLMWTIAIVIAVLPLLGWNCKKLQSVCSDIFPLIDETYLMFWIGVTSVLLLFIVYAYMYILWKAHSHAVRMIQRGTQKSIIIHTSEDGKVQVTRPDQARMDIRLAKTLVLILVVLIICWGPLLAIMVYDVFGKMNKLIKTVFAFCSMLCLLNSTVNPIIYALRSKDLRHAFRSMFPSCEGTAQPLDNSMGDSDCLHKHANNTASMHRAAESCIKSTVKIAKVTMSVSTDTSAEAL
Put plainly: biochemical. It is filed as binding. The method, then:
Tris-HCl, EGTA, NaCl, MgCl2 x 6H2O, GDP, the GTP analogue GTPγS, were purchased from Sigma-Aldrich (Budapest, Hungary). Fatty acid free bovine serum albumin (BSA) was purchased from Serva (Heidelberg, Germany). Naloxone was kindly provided by the company Endo Laboratories DuPont de Nemours (Wilmington, DE, USA). HS665 was provided by Schmidhammer’s group (University of Innsbruck, Austria). […]
purchased from Tocris Bioscience (Bristol, UK).
DMSO. All compounds were stored in 1 mM stock solution at -20 °C. The radiolabelled GTP analogue, [35S]GTPγS (specific activity: 1000 Ci/mmol) were purchased from Hartmann Analytic (Braunschweig, Germany). [3H]DAMGO (specific activity: 38.8 Ci/mmol),12 [3H]IleDelt II (specific activity: 19,6 Ci/mmol), [3H]WIN55,212-2 (specific activity: 13,1 Ci/mmol) and [3H]HS665 (specific activity: 36.62 Ci/mmol),3 were radiolabeled by the Laboratory of Chemical Biology group in BRC (Szeged, Hungary).
For membrane homogenate preparations male and female Wistar rats (250-300 g body weight) and male guinea pigs (~700 g body weight, LAL/HA/BR strain) were used. Rats were housed in the local animal house of BRC (Szeged, Hungary), while guinea pigs were housed in LAB-ÁLL Bt.
(Budapest, Hungary). All the animals were kept in a temperature controlled room (21-24 °C) under a 12:12 light and dark cycle and were provided with water and food ad libitum. All housing and experiments were conducted in accordance with the European Communities Council Directives (2010/63/EU) and the Hungarian Act for the Protection of Animals in Research (XXVIII.tv. 32.§).
The total number of animals as well as their suffering was minimized.
Rat and guinea pig brain membrane homogenate preparation for binding assays Rats and guinea pigs were decapitated and their brains were quickly removed. The brains were prepared for membrane preparation as previously described,4 and partly used for binding experiments and partly were further prepared for the [35S]GTPγS binding experiments. Briefly the brains were homogenized, centrifuged in ice-cold 50 mM Tris-HCl (pH 7.4) buffer and incubated at 37 °C for 30 min in a shaking water-bath. After incubation the centrifugation was repeated as described above and the final pellet was suspended in 50 mM Tris-HCl pH 7.4 buffer containing 0.32 M sucrose, and stored at -80 °C. For the [35S]GTPγS binding experiments the final pellet of rat […]
brain membrane homogenate was suspended in ice-cold TEM (Tris-HCl, EGTA, MgCl2) and stored at -80 °C for further use.
Radioligand competition binding experiments
Aliquots of frozen rat brain membrane homogenates were centrifuged (18 000 rpm, 20 min, 4 °C) to remove sucrose and the pellets were suspended in 50 mM Tris-HCl buffer (pH 7.4). Membranes containing 0.4-0.8 mg/mL of protein were incubated in a final volume of 1 mL in the presence of unlabeled 5, 10 and 9 in increasing concentrations (10-11-10-5 M) in the presence of the appropriate radioligand in ~1 nM concentrations at certain temperature and amount of time depending on the radioligand ([3H]DAMGO and [3H]IleDelt II: 35 °C for 45 min; [3H]HS665: 30 °C, 45 min; [3H]WIN55,212-2: 30 °C for 60 min). Experiments performed with [3H]HS665 where incubated […]
more kappa receptors than the rat brain), while the rest of the radioligands were incubated together with rat whole brain membrane homogenates. Additionally, in experiments performed with […]
increasing concentrations (10-11-10-5 M) together with 50 mM Tris/HCl, 2.5 mM EGTA, 5 mM MgCl2 and 0.5 mg/mL fatty acid free BSA (pH 7.4). The level of non-specific binding was […]
binding was determined in the absence of unlabeled compounds. The reaction was terminated by rapid filtration under vacuum (Brandel M24R Cell Harvester), and washed three times with 5 mL ice-cold 50 mM Tris-HCl or 50 mM Tris/HCl, 2.5 mM EGTA, 5 mM MgCl2, 0.5 % BSA (pH 7.4) in case of [3H]WIN55,212-2. The filtration was accomplished through Whatman GF/C ([3H]DAMGO, [3H]IleDelt II and [3H]HS665) or GF/B ([3H]WIN55,212-2) glass fibers. In case of […]

The target of experiment [2] is G-protein. Put plainly: Functional [35S]GTPγS binding assay on rat brain membrane homogenates. It is filed as biochemical. To be noted: rat brain membrane homogenates; for Emax ± S.E.M. (maximal G-protein efficacy): basal activity = 100%; for LogEC50 ± S.E.M. (ligand potency): logarithm of EC50, negative sign printed. The method, then: The experiments were performed by [35S]GTPγS binding assays to control the GDP to GTP exchange of the α-subunit of Gi-protein. […] We examined the opioid receptor binding affinity of 5 in competition binding experiments, using opioid receptor selective radioligands. […]
Functional [35S]GTPγS binding experiments
The functional [35S]GTPγS binding experiments were performed as previously described,5,6 with modifications. Briefly the rat brain membrane homogenates containing ~10 µg/mL protein were incubated at 30 °C for 60 min in Tris-EGTA buffer (pH 7.4) composed of 50 mM Tris-HCl, 1 mM EGTA, 3 mM MgCl2, 100 mM NaCl, containing 20 MBq/0.05 cm3 [35S]GTPγS (0.05 nM) and […]
compound 9 together with excess GDP (30 µM) in a final volume of 1 mL. Total binding was measured in the absence of test compounds, non-specific binding was determined in the presence of 10 µM unlabelled GTPγS. The bound and unbound [35S]GTPγS was separated as described in the […]
competition binding assays section through Whatmann GF/B glass fibers. The radioactivity of the filters was also detected as described above. [35S]GTPγS binding experiments were performed in triplicates and repeated at least three times.
The specific binding of all radiolabeled compounds was calculated by the subtraction of non-specific binding from total binding and was given in percentage. The data was normalized to total specific binding, which was settled 100%, which in case of [35S]GTPγS also represents the basal activity of the G-protein. Experimental data were presented as means ± S.E.M in the function of the applied ligand concentration range in logarithm form. Points were fitted with the professional curve fitting program, GraphPad Prism 5.0 (GraphPad Prism Software Inc., San Diego, CA), using non-linear regression. In the radioligand competition binding assays the ‘One-site competition’, while in [35S]GTPγS binding assays the ‘Sigmoid dose-response’ equation was applied to determine IC50 (unlabeled ligand affinity) and the maximum G-protein efficacy (Emax) and ligand potency (EC50), respectively. For IC50 and EC50 values standard error is only given in their logarithm form by the curve fitting program due to the data representation. In competition binding experiments the Ki value was calculated according to Cheng-Prusoff equation.7 […]
binding assays. In figure B, 5 is indicated again for better comparison. Figures represents the specific binding of [35S]GTPγS in percentage in the presence of increasing concentrations (10-10-10-5 M) of the indicated ligands in rat brain membrane homogenates. “Basal” on the x-axis indicates the basal activity of the monitored G-protein, which is measured in the absence of the compounds and also represents the total specific binding of [35S]GTPγS. The level of basal activity was defined as 100% and is presented with a dotted line. Points represent means ± S.E.M. for at least three experiments performed in triplicate.
In general terms: GTPγS is a poorly hydrolysed GTP analogue; its binding reports G protein activation.

Where [3] appears, read: rat whole brain membrane homogenates, Cheng-Prusoff, read-out: Ki, [3H]WIN55,212 (CBR).
[4] abbreviates: rat whole brain membrane homogenates, logarithm of IC50, negative sign printed, read-out: logIC50 ± S.E.M., [3H]WIN55,212 (CBR) (converted).

In experiment [1], `Cc1c(C(=O)NC2CCCCC2)nn(-c2ccc(Cl)cc2Cl)c1-n1cccc1` [Compound 4] had an IC50 of 575 nM and a Ki of 370 nM. Moreover, in experiment [2], the EC50 was 1870 nM, the “Emax ± S.E.M. (maximal G-protein efficacy)” value was found to be 55.95 ± 8.44% and the “LogEC50 ± S.E.M. (ligand potency)” value is on record as −5.72 ± 0.3.
As to `Cc1c(C(=O)NN2CCCCC2)nn(-c2ccc(Cl)cc2Cl)c1-c1ccc(Cl)cc1` [Rimonabant, reference compound], in experiment [2], a half-maximal effect (EC50) was put at 2200 nM, the “Emax ± S.E.M. (maximal G-protein efficacy)” value is 17.5 ± 5.72% and the “LogEC50 ± S.E.M. (ligand potency)” value is listed as −5.65 ± 0.12.
Turning to `Cc1c(C(=O)NC2CCN(C(=O)OC(C)(C)C)CC2)nn(-c2ccc(Cl)cc2Cl)c1-n1cccc1` [Compound 3], the Ki in experiment [1] (setting [3]) stood at 193 nM. Moreover, in experiment [1] (setting [4]), the IC50 was 295 nM. Also, in experiment [2], the EC50 is 2690 nM, the “Emax ± S.E.M. (maximal G-protein efficacy)” value was 12.78 ± 8.48% and the “LogEC50 ± S.E.M. (ligand potency)” value is −5.57 ± 0.15.
In experiment [1], `Cc1c(C(=O)NN2CCCCC2)nn(-c2ccc(Cl)cc2Cl)c1-n1cccc1` [Compound 1] had an IC50 of 195 nM and a Ki of 126 nM. Further, in experiment [2], the EC50 is 1620 nM, the “Emax ± S.E.M. (maximal G-protein efficacy)” value is on record as 26 ± 5.27% and the “LogEC50 ± S.E.M. (ligand potency)” value is on record as −5.78 ± 0.11.
`Cc1c(C(=O)N2CCN(C(=O)OCc3ccccc3)CC2)nn(-c2ccc(Cl)cc2Cl)c1-n1cccc1` [Compound 2]: the Ki in experiment [1] (setting [3]) was 710 nM. Further, the IC50 in experiment [1] (setting [4]) was 1100 nM. In addition, in experiment [2], the EC50 was 1540 nM, the “Emax ± S.E.M. (maximal G-protein efficacy)” value is listed as 22.95 ± 4.3% and the “LogEC50 ± S.E.M. (ligand potency)” value was −5.81 ± 0.09.
